Results on 87 molecules are retold here after a melting point compilation (Tetko et al.; mined from patent text by program, amines drawn as free bases though some values may be those of a salt).

The molecule `O=C(O)Cc1cccc(-c2cccc(COC3OC(CO)C(O)C(O)C3O)c2)c1` (configuration not stated) gave a melting point of 74 to 75 °C.

Molecule `COc1ccc(N2CCSC2=N)c([N+](=O)[O-])c1` registered a melting point of 156 °C.

Regarding `O=C(O)CP(=O)(O)CCCCc1ccccc1`, the melting point came to 110 °C.

The molecule `C[C@H](CO)Nc1ccc([N+](=O)[O-])cc1F` gave a melting point of 128 to 130 °C.

`O=C1CCC(N2Cc3c(OCc4cc(CN5CCOCC5)no4)cccc3C2=O)C(=O)N1` (configuration not stated) showed a melting point of 228 to 230 °C.

`CCN(CC)C(=O)c1ccoc1-c1ccc(N(C)C)cc1` had a melting point of 73 to 74 °C.

`Cc1nc2c([N+](=O)[O-])cc(Br)cc2n1C` had a melting point of 193 to 195 °C.

`Cc1ccc(OC(CCCCCc2ccc(Cl)cc2)C(=O)O)cc1` (configuration not stated) had a melting point of 74 to 76 °C.

As for `O=C(O)c1cccc(Oc2ncccc2C(=O)NCc2ccccc2)c1`, the melting point is 157 to 158 °C.

On to `Cc1cccc(NC(=O)NCC(=O)N(CC(=O)N(C)c2ccccc2Cl)c2ccccc2)c1`, for which the melting point came to 175 °C.

The molecule `CCSc1nnnn1-c1ccc(Cl)cc1F` showed a melting point of 76 to 79 °C.

`CCS(=O)CCNC(=O)C1=C(C(=O)Nc2ccc(Cl)cc2F)CCCC1` (configuration not stated): the melting point is 136 to 137 °C.

In the case of `C=C(CC(=O)OCC)c1cc(F)c2cc(OC)ccc2c1`, the melting point was in the range of 50 to 52 °C.

For the molecule `N#Cc1cc(S(=O)(=O)c2ccc(Cl)cc2)[nH]c1-c1ccc(Cl)cc1`, the melting point was in the range of 159 to 160 °C.

`CCS(=O)(=O)Cc1ccc(Cl)c2nc3n(c12)CCCN3c1ccc(Cl)cc1Cl` showed a melting point of 278 to 280 °C.

Molecule `Cc1cc2c(Oc3cccc(C(F)(F)F)c3)nc(CCC(F)(F)F)nc2s1` came in with a melting point of 85 °C.

In turn, `COc1cc(I)cc2c(O)c(C(=O)NCc3ccc(Cl)cc3)cnc12` displayed a melting point of 241 to 243 °C.

As to `CN(C)C(=O)c1ccc(I)cc1`, the melting point was 103 to 106 °C.

For the molecule `COC(=O)CCNC(=O)c1ccc2c(c1)nc(-c1ccc(C(=N)N)cc1)n2CCCCc1ccccc1`, the melting point lay within 184 to 186 °C.

In turn, `CCN(CC)CCNC(=O)c1cc(Cl)c(N)cc1OC(C)C(C)=NO` (configuration not stated) yielded a melting point of 113 to 115 °C.

Consider `COc1cc2cc(COC(C)=O)c(COC(C)=O)c(C)c2cc1OC`, for which the melting point was 130 to 131 °C.

Consider `Cc1cc(N2C=CNC2N)ccn1` (configuration not stated), for which the melting point is 167 °C.

In turn, `Cc1sc(Nc2cccc(C#N)n2)nc1-c1cn[nH]c1` had a melting point of 331 °C.

For the molecule `CCOC(=O)CC1CN(c2c(C)cccc2C)C(=N)N1c1c(C)cccc1C` (configuration not stated), the melting point fell in the range of 142 to 144 °C.

`COc1cc(OCC(CO)CO)c(-c2cccs2)cc1C=CC(=O)c1ccc(S(N)(=O)=O)cc1` returned a melting point of 191 to 192 °C.

Turning to `CC(=O)NC[C@H]1CN(c2ccc(N3CCSCC3)c(F)c2)C(=O)O1`, the melting point is 186 °C.

The molecule `COC(=O)CC(=O)c1ccc(O)cc1` yielded a melting point of 90 to 92 °C.

Take `CC(C=CC=C(C)CCCC(C)CCCC(C)C)=CC(=O)O` (configuration not stated): the melting point fell in the range of 84.5 to 85.5 °C.

As for `CCOC(=O)NCc1cccc2c1C(=O)N(C1CCC(=O)NC1=O)C2=O` (configuration not stated), the melting point is 187 to 189 °C.

Turning to `O=C(/C=C/C=C(c1cccc(F)c1)c1cccc(F)c1)Oc1ccc([N+](=O)[O-])cc1`, the melting point amounted to 130 °C.

In turn, `CC1(C)CCC(C)(C)c2cc(-c3ccc(-c4ccccc4)c(-c4ccc(C(=O)O)cc4)c3)ccc21` yielded a melting point of 233 to 235 °C.

In turn, `O=C=Nc1ccc(-c2n[nH]c3c2Cc2ccccc2-3)cc1` registered a melting point of 338 to 339 °C.

`Nc1cccc2c1CCCCC2` came in with a melting point of 107 to 111 °C.

Take `COc1cc2cc(CO)c(CO)c(C)c2cc1OC`: the melting point was in the range of 180 to 182 °C.

`O=Cc1cccc(-c2ccco2)n1` displayed a melting point of 46 to 48 °C.

Turning to `CCOC(=O)c1cn(Cc2ccccc2OC)c2c(F)c(F)c(F)cc2c1=O`, the melting point was 203 to 204 °C.

As to `N#Cc1nn(-c2c(Cl)cc(C(F)(F)F)cc2Cl)c(Cl)c1C=C(Br)Br`, the melting point was in the range of 119 to 120 °C.

For the molecule `CC(C)NC(=O)Nc1cc(C(C)(C)C)on1`, the melting point lay within 135 to 138 °C.

As to `CC(=O)NC[C@H]1CN(c2ccc(N3CCC4(CC3)NCCS4)c(F)c2)C(=O)O1`, the melting point lay within 150 to 152 °C.

`O=C(c1ccc(Nc2ccnc3cc(C(F)(F)F)ccc23)cc1)N1CCC(S(=O)c2ccc(F)cc2)CC1` (configuration not stated) showed a melting point of 215 to 216 °C.

In turn, `COc1ccc(CN(CC(=O)OC(C)(C)C)S(=O)(=O)c2ccc3c(Cl)cnc(Cl)c3c2)cc1` returned a melting point of 117 to 118 °C.

On to `COc1ccc2c(CBr)c(F)ccc2c1C(F)(F)F`, for which the melting point lay within 97 to 100 °C.

For the molecule `COC(=O)c1cc(Cl)c(I)cc1OC`, the melting point was in the range of 72 to 73 °C.

Take `CC(=O)c1c(O)cccc1OCC(C)(O)Oc1ccc(Br)cc1` (configuration not stated): the melting point was in the range of 102 to 103 °C.

On to `COc1ccc(C=CCN2CCC3(CC2)CN(C(=O)c2ccnc(Cl)c2)c2ccc(Cl)cc23)cc1`, for which the melting point fell in the range of 83 to 85 °C.

`COc1ccc(F)cc1C(C)(C)c1cc(F)ccc1O`: the melting point was 90 °C.

For the molecule `C#CCOC(=O)c1cccnc1C1=NC(C)(C(C)C)C(=O)N1` (configuration not stated), the melting point lay in the range of 188 to 190 °C.

The molecule `Cc1nc(C)c(Cn2nnnc2-c2cccc(Cl)c2Cl)s1` registered a melting point of 174 to 175 °C.

Consider `CC(C)(C)C(NC(=O)c1cccc(Cl)c1)Nc1c(Nc2cccnc2Cl)c(=O)c1=O` (configuration not stated), for which the melting point is 213 to 214 °C.

In the case of `CCOc1cc2ncc(C#N)c(Nc3cccc(C(C)=O)c3)c2cc1OCC`, the melting point was in the range of 191 to 194 °C.

On to `CC(=O)C1Cc2cc(CCN3CCC(c4noc5cc(F)ccc45)CC3)sc2CN1` (configuration not stated), for which the melting point lay in the range of 170 to 172 °C.

Turning to `CN1CCN(c2ccc(-c3[nH]nc4c3C(=O)c3c(NC(=O)NN(C)C)cccc3-4)cc2)CC1`, the melting point was determined as 192 °C.

For `CCc1cc(=O)n(-c2cc(C(=O)OC(C)C)c(Cl)cc2F)c(=O)[nH]1`, the melting point lay in the range of 121 to 124 °C.

As for `Cc1ccc(C(=O)c2cc3cc(Br)ccc3n2C)cc1`, the melting point was in the range of 169 to 171 °C.

`Cc1onc(C(=O)c2c(F)cccc2F)c1NC(=O)CBr` yielded a melting point of 76 to 80 °C.

Regarding `CCOc1ccc(-c2nc(OC)ccc2N2CCC(=O)N(c3ccc(OC)cc3)CC2)cc1C`, the melting point lay within 136 to 138 °C.

Molecule `O=C(NC(Cc1ccccc1)C(=O)O)c1ccc(-c2ccccc2OC2OC(CO)C(O)C(O)C2O)cc1` (configuration not stated) had a melting point of 116 to 119 °C.

Molecule `CCC1(O)C(C)=CC(=O)N1Cc1ccccc1` (configuration not stated) displayed a melting point of 129 to 132 °C.

`CCCCCCCCCCCCOCC1CN(c2cc3c(cc2F)c(=O)c(C(=O)O)cn3CC)CCN1` (configuration not stated) came in with a melting point of 125 to 127 °C.

As for `CS(=O)(=O)CCCC(=O)NNC(=O)N1Cc2ccccc2Oc2ccc(Cl)cc21`, the melting point lay within 198 to 199 °C.

`COc1ccc2c(c1)OC(c1ccc(Cl)cc1)CC2=O` (configuration not stated) registered a melting point of 97 to 99 °C.

`O=C(Nc1n[nH]c(=S)s1)NC(Cc1ccccc1)C(=O)NCc1ccc(C(F)(F)F)cc1` (configuration not stated) gave a melting point of 217 to 218 °C.

In turn, `OC(c1ccccc1)C1CCN1C(c1ccccc1)c1ccccc1` (configuration not stated) registered a melting point of 87.5 to 88.5 °C.

Molecule `CS(=O)(=O)N(Cc1ccccn1)CC(O)(Cn1cncn1)c1ccc(Cl)cc1Cl` (configuration not stated) yielded a melting point of 154 to 156 °C.

The molecule `CCCCCCCCCCCCCCC1CC(=O)N(NC(=O)CCc2cc(C(C)(C)C)c(O)c(C(C)(C)C)c2)C1=O` (configuration not stated) had a melting point of 70 to 77 °C.

For `CC(=O)c1nnn(C[C@@H]2C[C@@H](S)CN2S(=O)(=O)c2ccc3ccccc3c2)c1C`, the melting point amounted to 145 °C.

As to `CCCCNC(=O)[C@H](C)C[C@H](O)[C@H](CC1CCCCC1)NC(=O)[C@H](Cc1cscn1)NC(=O)OC(C)(C)C`, the melting point fell in the range of 172 to 174 °C.

For `O=C(Nc1ccc2c(c1)OCC(=S)N2)C(=O)N1CCC(Cc2ccccc2)CC1`, the melting point lay in the range of 193 to 196 °C.

Consider `CCN(C)c1nc2sc3c(NCCN4CCOCC4)ncnc3c2c2c1CCC(C)(C)C2`, for which the melting point amounted to 144 °C.

Consider `CCn1nc(C#N)c(=O)c2ccccc21`, for which the melting point was 216 to 218 °C.

Take `O=C(O)c1cncc(-c2ccc3c(C(=O)NCC45CC6CC(CC(C6)C4)C5)c(Cl)ccc3n2)c1`: the melting point is 247 °C.

Turning to `O=C1c2ccccc2C(=O)N1OCCCN1CCOCC1`, the melting point is 98 °C.

On to `O=C(O)C1CCc2c(c3cc(OCc4ccccc4)ccc3n2C(=O)c2ccccc2)C1` (configuration not stated), for which the melting point was 193 to 194 °C.

`COc1ccc(C(=O)N(c2ccccc2)c2ccc(OCCCN(C)C)cc2)c(OC)c1` gave a melting point of 78.5 to 82.5 °C.

In the case of `CC(=O)N1c2ccccc2C[C@H]1C#N`, the melting point was in the range of 134 to 135 °C.

As for `COC(=O)c1ncn(C(c2ccccc2)c2ccccc2)c1C(=O)OC`, the melting point came out at 93 °C.

Take `COc1ccc(-c2csc(Nc3ccc4ccccc4c3)n2)cc1OC`: the melting point lay in the range of 221 to 224 °C.

`CCCCCCC(C)Nc1ccc2c(c1)CCN2c1ncnc2cc(OC)c(OC)cc12` (configuration not stated): the melting point fell in the range of 61 to 63 °C.

Molecule `CNCCOc1ccc(C2=C(c3ccccc3)CCCc3cc(OC4CCCCO4)ccc32)cc1` (configuration not stated) returned a melting point of 133 to 137 °C.

In turn, `C[C@H]1CCCC(C)(C)[C@@H]1[C@H](O)c1ccc(C#N)c(Cl)c1` gave a melting point of 116 to 118 °C.

On to `CN1CCN(c2nc(=NC(=O)NC(C)(C)C)ss2)CC1`, for which the melting point is 169 to 172 °C.

In the case of `Cc1cc(C)cc(C(=O)N2CCC(N3CCC(OC(=O)c4cc(Cl)cc(Cl)c4)CC3)CC2Cc2ccccc2)c1` (configuration not stated), the melting point was 83.3 °C.

Take `O=C(O)c1c(-c2ccc(F)c(Cl)c2)c2ccccc2n1Cc1cc2c(cc1Cl)OCO2`: the melting point was in the range of 210 to 211 °C.

`CCCCCCNC(=O)C1=C(C(=O)Nc2cc(OC3CCC(C)C3)c(Cl)cc2F)CCCC1` (configuration not stated) displayed a melting point of 127 to 129 °C.

In the case of `O=c1oc2c(c(O)c1C(c1ccccc1)C1CC1)CCCCC2CC1CCCOC1` (configuration not stated), the melting point was in the range of 82 to 90 °C.

`O=C(CC(CSC(=O)c1ccccc1)C(=O)O)c1ccccc1` (configuration not stated) displayed a melting point of 110 to 111 °C.

In the case of `CC(C)c1cc(C(C)C)c(CC(=O)NS(=O)(=O)Oc2c(C(C)C)cc(N(CCO)CCO)cc2C(C)C)c(C(C)C)c1`, the melting point was in the range of 143 to 146 °C.

As a reminder, the melting point is the temperature, or range, at which the solid turns liquid.
